Test results published in patent US12510479B2, “Systems, devices, and methods for compound screening using predictive tagging” (ALLEN INSTITUTE, priority 2020, dated 2025).
“Also recorded” adds a separate entry of the source.

Experiments:
Format in all cases: cell-based, human
AICS-16 (beta Actin) = experiment: Predicted, label free imaging of drug effects (FIG. 10F, 10H); settings: AICS-16 cells; predicted label free images
Excerpt: (§1) FIGS. 10A-10H show the predicted, label free imaging effects of different drugs on different, differentiated, hiPSC cell lines. […] Brefeldin inhibits protein transport from the endoplasmic reticulum to the golgi complex indirectly by preventing association of COP-I coat to the Golgi membrane.

AICS-61 (Histone) = experiment: Predicted, label free imaging of drug effects (FIG. 10B, 10G); settings: AICS-61 cells; predicted label free images
Excerpt: as §1

AICS-44 (Golgi) = experiment: Predicted, label free imaging of drug effects (FIG. 10C, 10E); settings: AICS-44 cells; predicted label free images
Excerpt: as §1

[1] = system: AICS-24 (non-muscle Myosin); experiment: Predicted, label free imaging of drug effects (FIG. 10D); settings: AICS-24 cells; predicted label free images
Excerpt: as §1

hiPSC = experiment: Effect on microtubules and DNA during mitosis (FIG. 7)
Excerpt: Microtubules, DNA, and Cell membrane are each labeled.

[2] = system: Cell Line ID: AICS-0012 c1.105, Alpha tubulin mEGFP-tagged; experiment: Label free prediction of condensed DNA from brightfield images (FIG. 9C-9D); settings: 5 μM, 2 hours, vs DMSO control
Excerpt: (§2) Predicted imaging was also used with H2B (DNA) on Cell Line ID: AICS-0012 c1.105, Alpha tubulin mEGFP-tagged, to confirm the phenotype by two structures from the same cells.
FIGS. 9C and 9D show the predicted images, based on the label free prediction model, obtained by imaging the nucleus of the cells with brightfield microscopy, and predicting the location and amount of condensed DNA, based on the trained model.

[3] = system: hiPSC Cell Line ID: AICS-0061 c1.36 Histone H2B type 1-J mEGFP-tagged; experiment: Fluorescence imaging of Histone H2B mEGFP-tagged hiPSCs (FIG. 8E-8F); settings: 5 μM, 2 hours; mEGFP DNA tag; vs DMSO control
Excerpt: (§3) The fluorescent signal from the hiPSC Cell Line ID: AICS-0061 c1.36 Histone H2B type 1-J mEGFP-tagged (DNA tag) was used to train and validate the label free prediction model.

[4] = system: EGFP-tagged cell lines AICS-23, AICS-44, AICS-61, AICS-24 and AICS-16; experiment: Drug perturbation signature using label free prediction of DNA (FIG. 11A-11C); settings: population statistics after DNA segmentation of label free prediction
Description: FIG. 11A-11C show the drug perturbation signature using label free prediction, as described herein.
These signatures were distinct from those of other drug perturbations such as BIX, Brefeldin, H89, and Monensin. The identification of these perturbation signatures were performed in the following EGFP-tagged cell lines; AICS-23 (tight junction), AICS-44 (Golgi), AICS-61 (Histone), AICS-24 (non-muscle Myosin) and AICS-16 (beta Actin) without additional introduction of DNA signals.

[5] = system: hiPSC Cell Line ID: AICS-0061 c1.36 Histone H2B type 1-J mEGFP-tagged; experiment: Label free prediction of condensed DNA from brightfield images (FIG. 8C-8D); settings: 5 μM, 2 hours, vs DMSO control
Excerpt: as §3
FIGS. 8C and 8D show the predicted images, based on the label free prediction model, obtained by imaging the nucleus of the cells with brightfield microscopy, and predicting the location and amount of condensed DNA, based on the trained model.

[6] = system: Cell Line ID: AICS-0012 c1.105, Alpha tubulin mEGFP-tagged; experiment: Fluorescence imaging of Alpha tubulin mEGFP-tagged hiPSCs (FIG. 9E-9F); settings: 5 μM, 2 hours, vs DMSO control
Excerpt: as §2

C/C=C(/C)C(=O)O[C@H]1C(C)=C2[C@H]([C@@H]1OC(=O)CCCCCCC)[C@@](C)(OC(C)=O)C[C@H](OC(=O)CCC)[C@@]1(O)[C@H]2OC(=O)[C@@]1(C)O [Thapsigargin]
predicted effect on DNA, nuclear size, or microtubule formation (AICS-16 (beta Actin)): no predicted effect on DNA, nuclear size, or microtubule formation

O=S(=O)(NCCNC/C=C/c1ccc(Br)cc1)c1cccc2cnccc12 [H89]
predicted effect on DNA, nuclear size, or microtubule formation (AICS-61 (Histone)): no predicted effect on DNA, nuclear size, or microtubule formation

COc1cc2nc(N3CCCN(C)CC3)nc(NC3CCN(Cc4ccccc4)CC3)c2cc1OC [BIX-01294]
predicted effect on DNA, nuclear size, or microtubule formation (AICS-44 (Golgi)): no predicted effect on DNA, nuclear size, or microtubule formation

CC[C@@]1([C@@H]2O[C@@H]([C@H]3O[C@@](O)(CO)[C@H](C)C[C@@H]3C)C[C@@H]2C)CC[C@H]([C@]2(C)CC[C@]3(C[C@H](O)[C@@H](C)[C@@H]([C@@H](C)[C@@H](OC)[C@H](C)C(=O)O)O3)O2)O1 [Monensin]
predicted effect on DNA, nuclear size, or microtubule formation [1]: no predicted effect on DNA, nuclear size, or microtubule formation

CC(=O)O[C@H]1C(=O)[C@@]2(C)[C@H]([C@H](OC(=O)c3ccccc3)[C@]3(O)C[C@H](OC(=O)[C@H](O)[C@@H](NC(=O)c4ccccc4)c4ccccc4)C(C)=C1C3(C)C)[C@]1(OC(C)=O)CO[C@@H]1C[C@@H]2O [Paclitaxel]
microtubule bundle thickness (hiPSC): increases microtubule bundle thickness
effect on hiPSC division (hiPSC; mitosis): arrest of cells in metaphase
microtubule density (hiPSC; mitosis, FIG. 7): increase in microtubule density
amount of condensed DNA in predicted images [2]: higher than the control cells
condensed DNA, fluorescence image [3]: increase in condensed DNA
condensed DNA frequency (perturbation signature in predicted images) [4]: increase in frequency of DNA condensation frequency; also recorded: increased condensed DNA Frequency
nuclear density (perturbation signature in predicted images) [4]: higher nuclear density
nuclear volume (perturbation signature in predicted images) [4]: larger nuclear volume
amount of condensed DNA in predicted images [5]: higher than the control cells
predicted effect on DNA, nuclear size, or microtubule formation (AICS-61 (Histone)): condensed DNA (condensed microtubules)
microtubule formation, fluorescence image [6]: increase in microtubule formation

C[C@H]1CCC/C=C/[C@@H]2C[C@H](O)C[C@H]2[C@H](O)/C=C/C(=O)O1 [Brefeldin]
predicted effect on DNA, nuclear size, or microtubule formation (AICS-44 (Golgi)): no predicted effect on DNA, nuclear size, or microtubule formation
